Data as given in article PMC13184981, “Discovery and Development of a Potent LIMK2 Isoform-Specific Degrader” (ACS Chemical Biology, 2026).
One block for each compound: values may come before it.

Columns and labels:
LIMK1 = target: T1, LIMK1 (Homo sapiens, UniProt P53667); test: Western blot of endogenous LIMK1 in HuCCT1 cells; type: cell-based; details: HuCCT1, 6 h treatment
T1 construct: host or cells: HEK293T
Method: HuCCT1 cell line was cultured in Roswell Park Memorial Institute (RPMI) 1640 medium supplemented with GlutaMAX, 10% fetal bovine serum (FBS), and 1% penicillin/streptomycin. The cell line was maintained in an incubator with 5% CO2 at 37 °C. For the treatment, 3 × 10^5 cells were plated and treated with the compounds and DMSO as the control for 6 h. The cells were then lysed using RIPA buffer (50 mM Tris-HCl pH 7.4, 150 mM NaCl, 1% Triton X-100, 1% NaDOC, 0.1% SDS, 1 mM EDTA), freshly supplemented with protease and phosphatase inhibitor cocktails (Sigma-Aldrich, Darmstadt, Germany). After 1 h incubation on ice, the lysates were centrifuged for 30 min at […], and the protein-containing supernatant was collected. The protein concentrations were determined using Protein Assay Dye Reagent Concentrate (Bradford, Bio-Rad, Hercules, CA, USA) and Pre-Diluted Protein Assay Standards: Bovine Serum Albumin (BSA) Set (Thermo Fisher Scientific, Darmstadt, Germany). Then, equal amounts of protein was mixed with Roti-Load 1 dye (Carl Roth, Karlsruhe, Germany) and 4x Laemmli Buffer (Bio-Rad, Hercules, CA, USA), denatured at 95 °C, and run on NuPAGE 4–12% bis-Tris gels (Thermo Fisher Scientific). Proteins were blotted on methanol-activated PVDF Transfer Membranes (Thermo Fisher Scientific) using the wet transfer method with the transfer buffer (Thermo Fisher Scientific) and 20% methanol. […]

LIMK2 [1] = target: T2, LIMK2 (Homo sapiens, UniProt P53671); test: Western blot of endogenous LIMK2 in HuCCT1 cells; type: cell-based; details: HuCCT1, 6 h treatment
Method: HuCCT1 cell line was cultured in Roswell Park Memorial Institute (RPMI) 1640 medium supplemented with GlutaMAX, 10% fetal bovine serum (FBS), and 1% penicillin/streptomycin. The cell line was maintained in an incubator with 5% CO2 at 37 °C. For the treatment, 3 × 10^5 cells were plated and treated with the compounds and DMSO as the control for 6 h. The cells were then lysed using RIPA buffer (50 mM Tris-HCl pH 7.4, 150 mM NaCl, 1% Triton X-100, 1% NaDOC, 0.1% SDS, 1 mM EDTA), freshly supplemented with protease and phosphatase inhibitor cocktails (Sigma-Aldrich, Darmstadt, Germany). After 1 h incubation on ice, the lysates were centrifuged for 30 min at […], and the protein-containing supernatant was collected. The protein concentrations were determined using Protein Assay Dye Reagent Concentrate (Bradford, Bio-Rad, Hercules, CA, USA) and Pre-Diluted Protein Assay Standards: Bovine Serum Albumin (BSA) Set (Thermo Fisher Scientific, Darmstadt, Germany). Then, equal amounts of protein was mixed with Roti-Load 1 dye (Carl Roth, Karlsruhe, Germany) and 4x Laemmli Buffer (Bio-Rad, Hercules, CA, USA), denatured at 95 °C, and run on NuPAGE 4–12% bis-Tris gels (Thermo Fisher Scientific). Proteins were blotted on methanol-activated PVDF Transfer Membranes (Thermo Fisher Scientific) using the wet transfer method with the transfer buffer (Thermo Fisher Scientific) and 20% methanol. Afterward, the membranes were blocked with 5% milk or 3% BSA in 0.1% TBS-T for 1 h at RT and incubated overnight at 4 °C with primary antibodies: GAPDH (catalog no. 2118, Cell Signaling Technology, MA, USA, 1:1000 dilution), LIMK1 (catalog no. 3842, Cell Signaling Technology, 1:1000 dilution), LIMK2 (catalog no. 3845, 1:500 dilution), phospho-Cofilin (catalog no. 3313, Cell Signaling Technology, 1:1000 dilution), Cofilin (catalog no. 5175, Cell Signaling Technology, 1:1000 dilution). Then, the membranes were washed with 0.1% TBS-T and incubated with secondary horseradish-peroxidase (HRP)-conjugated antibody for 2 h (catalog no. 7074, Cell Signaling Technology, 1:3000 dilution). The membranes were washed again with 0.1% TBS-T before they were developed using X-ray films (Fujifilm, Dusseldorf, Germany).

LIMK2 [2] = target: T2, LIMK2; test: NanoBRET cellular target engagement, LIMK2; type: cell-based; parameters: host or cells: HEK293T; details: HEK293T cells, Tracer K10, 2 h; read-out: LIMK2 NanoBRET IC50
Method: Gene encoding LIMK1 (Promega, NV3391) and LIMK2 (Promega, NV1531), CRBN (Promega, N2741) proteins cloned in frame with NanoLuc fusion tag at the C-terminus, were transfected into HEK293T cells using FuGENE HD (Promega, E2312) following manufacture’s protocol and proteins were allowed to express for 20 h at 37 °C and 5% CO2. […] The 10 μL of transfected cells after trypsinization and resuspending in Opti-MEM (Life Technologies, 31985070) were dispensed into each well of the 384-well plate (Greiner 781207) at a cell density of 2 × 10^5 cells/mL. For dose–response BRET measurements, compounds at various concentrations, immediately followed by Tracer K10 (Promega, Tracer DB ID: T000008) for LIMK1 and LIMK2, CRBN Tracer (Promega, Tracer DB ID: T000018) for CRBN at an optimum KD concentration chosen from TracerDB (tracerdb.org), were pipetted using an Echo acoustic dispenser (Labcyte). The system was allowed to equilibrate for 2 h at 37 °C and 5% CO2 before BRET measurements. To measure BRET signal, the NanoBRET NanoGlo Substrate (Promega, N1573) was added as per the manufacturer’s protocol, and filtered luminescence was measured on a PHERAstar plate reader (BMG Labtech) equipped with a luminescence filter pair (450 nm BP filter (donor) and 610 nm LP filter (acceptor)). For lysed NanoBRET measurement, 25 nL of Digitonin (0.05 μg/μL) was pipetted to each well using Labcyte, and the plate was incubated for 5 min at 37 °C and 5% CO2. After incubation, the BRET signals were measured by a PHERAstar plate reader following the same procedure as intact NanoBRET measurement. […] The BRET ratios are normalized to both of them in the prism output data file. Competitive displacement data were then normalized to controls and were graphed using GraphPad Prism 9 software employing a normalized 3-parameter curve fit with the following equation: Y = 100/(1 + 10̂(X – logIC50)).

EGFP–LIMK2 = target: T3, EGFP–LIMK2 (Homo sapiens, UniProt P53671); test: EGFP-LIMK2 depletion live-cell assay (Incucyte); type: cell-based; details: for EGFP–LIMK2 degradation (in words): live cells, over 72 h
T3 construct: P2A remnant (from EGFP-LIMK2-P2A-mCherry; that residues stay on LIMK2 after self-cleavage is own knowledge) (C); expressed in transfected cells; host or cells: HuCCT1 (lentiviral transduction, doxycycline-inducible pCW57 vector)
Method: To enable a more comprehensive and rapid evaluation of the synthesized PROTACs, we generated a stable, doxycycline-inducible HuCCT1 cell line that expressed an N-terminally fused EGFP–LIMK2 protein. […] The degradation activity of the synthesized PROTACs set was screened at five concentrations ranging from 1 nM to 1000 nM over 72 h using live-cell imaging (Figure E).
LIMK2 was cloned into pcDNA5-EGFP-NLS-P2A-mCherry-PTS1 (Addgene plasmid #87803) by replacing the NLS sequence with the LIMK2 sequence. pcDNA5-EGFP-NLS-P2A-mCherry-PTS1 was a gift from Andrea Musacchio. Subsequently, EGFP-[…]-P2A-mCherry was cloned into the lentiviral vector pCW57-MCS1-P2A-MCS2 (Hygro) (Addgene plasmid #80922) to generate pCW57-HygB-EGFP-LIMK2-P2A-mCherry. pCW57-MCS1-P2A-MCS2 (Hygro) was a gift from Adam Karpf.
HEK293T cells (ATCC, CRL-3216) were cultured in Dulbecco’s Modified Eagle’s Medium (DMEM), while HUCCT1 cells (ATCC, CRL-1997) were cultured in RPMI medium supplemented with 10% fetal bovine serum (FBS) and 1% penicillin/streptomycin (P/S) antibiotic mix (all from Sigma-Aldrich, St. Louis, Missouri, USA). Lentiviral particles were produced in HEK293T cells using pCW57-HygB-EGFP-LIMK2-[…]P2A-mCherry, pMD2.G, and psPAX2. HUCCT1 cells were transduced with lentivirus to express LIMK2.
Briefly, the cells were plated and propagated in 6-well plates overnight. The next day, transduction with viruses was performed. Two days later, transduced cells with pCW57-HygB-EGFP-LIMK2-P2A-mCherry plasmids were selected using 100 μg/mL Hygromycin B. After at least three passages, the cells were sorted for the same populations of RFP- and GFP-expressing cells using the SH800S Cell Sorter (Sony Biotechnology, San Jose, CA, USA). Stable pools of cells were maintained in the same medium used for selection.
To assess the turnover of LIMK2, we used the Incucyte S3 or XS5 live-cell imaging system and performed the assay as previously described. , Briefly, 2,000 HUCCT1 cells stably expressing EGFP-LIMK2-P2A-mCherry were seeded per well in a 384-well plate in 50 μL of RPMI medium supplemented with 10% fetal bovine serum (FBS) and 1% penicillin/streptomycin. Cells were incubated for 24 h before treatment. To induce LIMK2 expression, 1 μg/mL of doxycycline (Sigma-Aldrich, D9891–1G) was added at the time of seeding.
After 24 h, 50 μL of medium containing either 0.1% DMSO or the desired concentration of PROTACs was added. Fluorescence in three channels–GFP, RFP, and phase contrast (cell confluence)–was monitored every 2 h for 72 h using the Incucyte S3 or XS5 (Sartorius, Germany). LIMK2 turnover was quantified by calculating the ratio of total fluorescence intensity of RFP to GFP. Each time point represents the average ratio from three technical replicates.

VHL:ELOB:ELOC = VHL:ELOB:ELOC (Homo sapiens, UniProt P40337); test: SPR VHL binary complex affinity and kinetics; type: binding; details: read-out: binary affinity toward VHL
Method: (§1) Approximately 1000 RU of biotinylated VHL:ELOB:ELOC was loaded onto a Series S CM5 chip coated with Streptavidin. All experiments were performed at 25 °C. The chip was equilibrated with a running buffer containing 20 mM HEPES, pH 7.4, 150 mM NaCl, 0.5 mM TCEP, 1% BSA, and 0.05% Tween 20.
To assess ternary complex formation, 1 μM of VHL-binding PROTAC was preincubated with a 2-fold molar excess of LIMK1 to promote binary complex formation and minimize the hook effect. The resulting binary complex was injected over the immobilized VHL:ELOB:ELOC surface at a flow rate of 30 μL/min for 60 s, followed by a dissociation phase of 180 s. An increase in resonance signal relative to the binary complex alone was used as an indicator of ternary complex formation. In separate experiments, binary and ternary complex affinities were measured and compared using serial dilutions as described for LIMK1. Additionally, the association rate constant (k a), dissociation rate constant (k d) were determined for the binary complexes.

[3] = target: T4, VHL:ELOB:ELOC and LIMK1 kinase domain (Homo sapiens, UniProt P40337+P53667); test: SPR VHL ternary complex formation with LIMK1; type: binding
T4 construct: (330–S637), LIMK1-avi; 6xHis-Z-tag (TEV-cleavable) (N, cleaved yes); made in house; host or cells: LIMK1: insect cells (baculovirus)
Method: Surprised by the weak target engagement of VHL-based LIMK PROTACs, we investigated whether they form a stable ternary complex. To address this, we established an SPR-based ternary complex assay using immobilized VHL:ELOB/C complex on an SPR chip. In this assay format, the binary complex was formed by preincubating PROTACs with a 2-fold excess of purified LIMK1 kinase domain to avoid the hook effect. The binary complex was passed over an SPR surface immobilized with the VHL:ELOB/C complex. Ternary complex formation was detected as a large signal increase, as expected for the large molecular weight increase upon binding of the LIMK1 PROTAC complex (Figure C).
as §1
To assess ternary complex formation, 1 μM of VHL-binding PROTAC was preincubated with a 2-fold molar excess of LIMK1 to promote binary complex formation and minimize the hook effect. […] In separate experiments, binary and ternary complex affinities were measured and compared using serial dilutions as described for LIMK1. Additionally, the association rate constant (k a), dissociation rate constant (k d) were determined for the binary complexes.

HEK293T cells = test: CellTiter-Glo 2.0 cell viability assay; type: cell-based, human; details: 24-h treatment, 25 nM to 20 µM
Method: The effects of the PROTAC on cell viability were determined using the CellTiter-Glo 2.0 Cell Viability Assay (Promega, G9241) following the manufacturer’s protocol. […] 40 μL of assay reagent was added and incubated for 10 min at RT. Filtered luminescence was measured using a PHERAstar plate reader (BMG Labtech), and data were analyzed using GraphPad Prism 9.

Chain of VHL:ELOB:ELOC (P40337 54-213 limits assumed, species assumed): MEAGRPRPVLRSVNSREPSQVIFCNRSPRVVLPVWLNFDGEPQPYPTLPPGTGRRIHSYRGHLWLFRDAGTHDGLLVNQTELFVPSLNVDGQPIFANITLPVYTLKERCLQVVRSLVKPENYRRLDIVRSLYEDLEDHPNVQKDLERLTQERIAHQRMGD
Chain of VHL:ELOB:ELOC (Q15370 whole entry partner, species assumed): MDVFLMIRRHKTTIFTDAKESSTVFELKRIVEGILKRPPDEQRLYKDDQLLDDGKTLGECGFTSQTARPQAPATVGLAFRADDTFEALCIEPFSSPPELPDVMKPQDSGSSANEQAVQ
Chain of VHL:ELOB:ELOC (Q15369 17-112 partner limits assumed, species assumed): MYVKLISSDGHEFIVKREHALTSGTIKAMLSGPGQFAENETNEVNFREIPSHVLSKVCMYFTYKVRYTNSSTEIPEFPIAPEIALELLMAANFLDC
T2 sequence (P53671 whole entry): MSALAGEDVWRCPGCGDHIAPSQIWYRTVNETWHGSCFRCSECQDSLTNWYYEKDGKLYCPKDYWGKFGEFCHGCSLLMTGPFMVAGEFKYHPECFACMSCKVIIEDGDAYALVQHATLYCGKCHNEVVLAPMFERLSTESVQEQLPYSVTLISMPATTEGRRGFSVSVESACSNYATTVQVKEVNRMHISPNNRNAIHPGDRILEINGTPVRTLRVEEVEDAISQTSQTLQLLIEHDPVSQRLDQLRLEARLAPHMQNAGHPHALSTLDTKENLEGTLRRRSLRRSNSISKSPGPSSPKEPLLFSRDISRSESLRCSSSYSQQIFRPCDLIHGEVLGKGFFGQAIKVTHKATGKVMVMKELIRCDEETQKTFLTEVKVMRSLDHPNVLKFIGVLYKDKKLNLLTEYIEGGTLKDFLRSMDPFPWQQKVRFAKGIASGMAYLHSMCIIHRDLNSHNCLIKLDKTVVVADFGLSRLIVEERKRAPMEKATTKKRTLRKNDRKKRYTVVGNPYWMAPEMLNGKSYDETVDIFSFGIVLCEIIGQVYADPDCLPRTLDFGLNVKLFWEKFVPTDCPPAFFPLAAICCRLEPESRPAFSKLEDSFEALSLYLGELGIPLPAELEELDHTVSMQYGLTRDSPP
T3 sequence (P53671 whole entry): as above
T4 sequence (P40337 54-213 limits assumed, species assumed): as the sequence (P40337 54-213 limits assumed, species assumed) above
T4 sequence (Q15370 whole entry partner, species assumed, the tested form may be a part): as the sequence (Q15370 whole entry partner, species assumed) above
T4 sequence (Q15369 17-112 partner limits assumed, species assumed): as the sequence (Q15369 17-112 partner limits assumed, species assumed) above
T4 sequence (P53667 330-637 limits assumed, species assumed): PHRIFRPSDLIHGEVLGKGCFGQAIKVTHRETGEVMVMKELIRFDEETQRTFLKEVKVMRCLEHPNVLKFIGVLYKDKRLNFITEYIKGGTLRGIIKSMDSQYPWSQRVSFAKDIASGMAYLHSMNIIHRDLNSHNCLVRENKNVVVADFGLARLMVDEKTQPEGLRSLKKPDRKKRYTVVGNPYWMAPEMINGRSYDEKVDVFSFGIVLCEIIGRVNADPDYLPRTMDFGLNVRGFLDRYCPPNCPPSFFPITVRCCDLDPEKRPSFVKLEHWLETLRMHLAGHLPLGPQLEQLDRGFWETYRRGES
T1 sequence (P53667 whole entry): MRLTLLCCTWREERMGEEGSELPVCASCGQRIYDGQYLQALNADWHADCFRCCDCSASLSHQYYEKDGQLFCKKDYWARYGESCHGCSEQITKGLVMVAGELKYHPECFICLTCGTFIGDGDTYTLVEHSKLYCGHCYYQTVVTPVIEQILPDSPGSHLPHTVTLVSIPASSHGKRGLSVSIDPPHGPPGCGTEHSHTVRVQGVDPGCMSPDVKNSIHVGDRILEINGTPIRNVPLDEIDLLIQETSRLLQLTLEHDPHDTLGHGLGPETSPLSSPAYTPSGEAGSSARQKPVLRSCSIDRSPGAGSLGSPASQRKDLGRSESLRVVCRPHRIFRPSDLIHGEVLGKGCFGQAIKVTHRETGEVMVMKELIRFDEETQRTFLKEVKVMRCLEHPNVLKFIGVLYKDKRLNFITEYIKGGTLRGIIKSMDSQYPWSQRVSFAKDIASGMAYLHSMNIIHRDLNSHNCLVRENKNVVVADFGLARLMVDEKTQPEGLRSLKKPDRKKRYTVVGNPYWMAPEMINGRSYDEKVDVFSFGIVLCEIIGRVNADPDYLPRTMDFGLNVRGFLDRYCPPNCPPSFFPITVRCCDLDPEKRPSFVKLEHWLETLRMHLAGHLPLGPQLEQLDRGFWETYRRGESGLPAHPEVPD

LIMK1 degradation (Western blot) (LIMK1): did not degrade either isoform
LIMK2 degradation (Western blot) (LIMK2 [1]): did not degrade either isoform
Structure (SMILES): O=C1CCC(N2C(=O)c3cccc(OCc4cn(CC(=O)Nc5ncc(-c6cc(C(F)F)nn6-c6c(Cl)cccc6Cl)s5)nn4)c3C2=O)C(=O)N1 (stereo not drawn) [21a]

IC50 (LIMK2 [2]): 80 nM
DC50 (EGFP–LIMK2; HuCCT1 EGFP–LIMK2 cells, live-cell kinetic assay over 72 h, read-out: DC50 (LIMK2 degradation)): 13.7 nM
potency enhancement (DC50) relative to 21b (EGFP–LIMK2; vs 21b): 2.4 fold
Structure (SMILES): Cc1c(OCc2cn(CCCCCC(=O)Nc3ncc(-c4cc(C(F)F)nn4-c4c(Cl)cccc4Cl)s3)nn2)cccc1N1CCC(=O)NC1=O [22c]

Kd (VHL:ELOB:ELOC): > 1000 nM
higher affinity upon formation of ternary complex vs binary [3]: 10 fold
Structure (SMILES): Cc1ncc(-c2ccc(CNC(=O)[C@@H]3C[C@@H](O)CN3C(=O)[C@@H](NC(=O)CCCc3cn(CCCCC(=O)Nc4ncc(-c5cc(C(F)F)nn5-c5c(Cl)cccc5Cl)s4)nn3)C(C)(C)C)cc2)s1 [23h]

Kd (VHL:ELOB:ELOC): > 1000 nM
higher affinity upon formation of ternary complex vs binary [3]: 10 fold
Structure (SMILES): Cc1ncc(-c2ccc(CNC(=O)[C@@H]3C[C@@H](O)CN3C(=O)[C@@H](NC(=O)CCCc3cn(CCCCCC(=O)Nc4ncc(-c5cc(C(F)F)nn5-c5c(Cl)cccc5Cl)s4)nn3)C(C)(C)C)cc2)s1 [23i]

EGFP–LIMK2 degradation (in words) (EGFP–LIMK2): moderate LIMK2 degradation
LIMK2 degradation (Western blot) (LIMK2 [1]): modest LIMK2 degradation at 1 μM
Structure (SMILES): Cc1ncc(-c2ccc(CNC(=O)[C@@H]3C[C@@H](O)CN3C(=O)[C@@H](NC(=O)c3cn(CCCCCC(=O)Nc4ncc(-c5cc(C(F)F)nn5-c5c(Cl)cccc5Cl)s4)nn3)C(C)(C)C)cc2)s1 [23c]

Kd (VHL:ELOB:ELOC): > 1000 nM
Structure (SMILES): Cc1ncc(-c2ccc(CNC(=O)[C@@H]3C[C@@H](O)CN3C(=O)[C@@H](NC(=O)CCc3cn(CCCCCC(=O)Nc4ncc(-c5cc(C(F)F)nn5-c5c(Cl)cccc5Cl)s4)nn3)C(C)(C)C)cc2)s1 [23f]

EGFP–LIMK2 degradation (in words) (EGFP–LIMK2): no degradation of LIMK2
LIMK2 degradation (Western blot) (LIMK2 [1]): did not induce any LIMK2 degradation
Structure (SMILES): Cc1c(OCc2cn(CCCCC(=O)Nc3ncc(-c4cc(C(F)F)nn4-c4c(Cl)cccc4Cl)s3)nn2)cccc1N1CCC(=O)N(C)C1=O [THNAN69-NC]
cytotoxic effects (HEK293T cells): no cytotoxic effects
